Results on 14 compounds are retold here after patent US8076324B2, “Di(hetero)arylcyclohexane derivatives, their preparation, their use and pharmaceutical compositions comprising them” (Sanofi-Aventis, priority 2007, dated 2011).

For series [1], the target named is T1, myocardial ATP-sensitive potassium channel (SUR2A/Kir6.2) (UniProt Q61743+Q63563).
T1 construct: expressed in transfected cells
Nature of the series: Rubidium efflux test on HEK293 cells transfected with SUR2A and Kir6.2 (myocardial action). Type of series: cell-based, SUR2A from the rat, Kir6.2 from the mouse. Particulars: HEK293 cells transfected with SUR2A/Kir6.2; KATP channels opened by rilmakalim; 25 min incubation; read-out: IC50 values for the inhibition of the rubidium efflux. The method in brief: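 HEK293 cells stably expressing mouse Kir6.2 and rat SUR2A loaded 3 h at 37 °C with 5.4 mM RbCl, then test compound added and channels opened with rilmakalim (2 μM, stock as added) for 25 min at 37 °C. Rb+ in supernatant and lysate by atomic absorption; efflux = supernatant/total, IC50 via Hill equation.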

T1 sequence (Q63563 whole entry): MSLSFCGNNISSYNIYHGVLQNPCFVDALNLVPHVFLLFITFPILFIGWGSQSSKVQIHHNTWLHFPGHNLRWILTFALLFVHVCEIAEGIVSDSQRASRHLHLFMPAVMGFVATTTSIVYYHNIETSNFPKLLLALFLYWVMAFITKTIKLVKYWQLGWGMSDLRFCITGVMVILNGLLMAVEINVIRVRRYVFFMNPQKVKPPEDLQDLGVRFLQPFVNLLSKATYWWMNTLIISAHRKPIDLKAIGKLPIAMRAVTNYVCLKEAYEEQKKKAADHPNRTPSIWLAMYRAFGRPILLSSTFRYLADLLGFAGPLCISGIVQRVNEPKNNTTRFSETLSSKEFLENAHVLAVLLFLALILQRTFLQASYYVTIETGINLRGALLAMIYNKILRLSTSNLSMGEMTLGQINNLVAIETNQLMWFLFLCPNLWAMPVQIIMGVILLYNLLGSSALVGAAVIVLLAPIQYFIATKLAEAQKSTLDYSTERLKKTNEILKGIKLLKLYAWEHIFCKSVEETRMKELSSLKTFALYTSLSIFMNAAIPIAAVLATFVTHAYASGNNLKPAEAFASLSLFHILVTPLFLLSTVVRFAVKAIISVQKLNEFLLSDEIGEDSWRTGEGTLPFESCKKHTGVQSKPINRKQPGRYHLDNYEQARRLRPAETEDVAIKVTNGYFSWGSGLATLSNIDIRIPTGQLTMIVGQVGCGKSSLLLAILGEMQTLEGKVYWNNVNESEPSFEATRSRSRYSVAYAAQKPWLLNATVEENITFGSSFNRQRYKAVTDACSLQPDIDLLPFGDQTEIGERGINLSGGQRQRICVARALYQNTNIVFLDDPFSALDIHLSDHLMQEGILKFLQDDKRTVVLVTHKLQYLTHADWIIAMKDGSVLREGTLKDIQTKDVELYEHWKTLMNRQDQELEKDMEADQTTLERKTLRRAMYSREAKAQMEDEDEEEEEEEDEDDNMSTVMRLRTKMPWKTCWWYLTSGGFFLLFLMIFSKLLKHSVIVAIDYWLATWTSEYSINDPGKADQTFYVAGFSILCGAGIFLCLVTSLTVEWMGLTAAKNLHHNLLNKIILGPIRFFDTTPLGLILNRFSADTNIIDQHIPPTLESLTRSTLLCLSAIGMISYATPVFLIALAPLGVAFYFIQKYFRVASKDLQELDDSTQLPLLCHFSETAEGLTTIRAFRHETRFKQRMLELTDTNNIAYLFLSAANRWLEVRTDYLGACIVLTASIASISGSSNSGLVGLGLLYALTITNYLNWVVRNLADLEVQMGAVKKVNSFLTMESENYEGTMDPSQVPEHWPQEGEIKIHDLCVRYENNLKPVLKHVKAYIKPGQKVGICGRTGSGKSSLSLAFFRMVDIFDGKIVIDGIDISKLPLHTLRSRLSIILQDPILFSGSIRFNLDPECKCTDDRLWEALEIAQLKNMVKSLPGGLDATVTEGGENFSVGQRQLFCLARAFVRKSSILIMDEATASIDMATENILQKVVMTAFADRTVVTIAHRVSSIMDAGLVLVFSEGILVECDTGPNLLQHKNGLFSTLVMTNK
T1 sequence (Q61743 whole entry): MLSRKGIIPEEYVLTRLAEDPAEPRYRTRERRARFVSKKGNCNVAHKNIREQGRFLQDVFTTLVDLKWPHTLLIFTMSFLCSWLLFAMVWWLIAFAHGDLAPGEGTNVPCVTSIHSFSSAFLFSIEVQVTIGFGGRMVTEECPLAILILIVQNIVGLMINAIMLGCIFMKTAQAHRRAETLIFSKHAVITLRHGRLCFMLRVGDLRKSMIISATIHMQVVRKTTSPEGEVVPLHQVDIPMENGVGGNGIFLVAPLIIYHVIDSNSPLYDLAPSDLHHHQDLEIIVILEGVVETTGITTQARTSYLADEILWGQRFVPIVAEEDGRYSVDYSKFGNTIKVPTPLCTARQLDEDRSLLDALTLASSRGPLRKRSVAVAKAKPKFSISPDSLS

Turning to `O=C(O)[C@]1(c2ccc(F)cc2)CC[C@](OCC2CC2)(c2cn(CC3CC3)c(-c3ccccc3)n2)CC1` [Example 432, Trans-4-Cyclopropylmethoxy-4-(1-cyclopropylmethyl-2-phenyl-1H-imidazol-4-yl)-1-(4-fluorophenyl)cyclohexanecarboxylic Acid], the melting point was 209 °C. Also, in series [1], the IC50 was < 1 µM.
Compound `Cc1c(Br)nc([C@]2(OCC3CC3)CC[C@](C(=O)O)(c3ccc(F)cc3)CC2)n1CC1CC1` [Example 350, Cis 4-(4-Bromo-1-cyclopropylmethyl-5-methyl-1H-imidazol-2-yl)-4-cyclopropylmethoxy-1-(4-fluorophenyl)cyclohexanecarboxylic Acid] returned a melting point of 210 °C. Besides, the IC50 in series [1] is < 1 µM.
The compound `O=C(O)[C@]1(c2ccc(F)cc2)CC[C@](Oc2ccccc2)(c2ccc(F)cn2)CC1` [Example 345, Trans-1-(4-Fluorophenyl)-4-(5-fluoropyridin-2-yl)-4-phenoxycyclohexanecarboxylic Acid] registered a melting point of 237 °C. Further, the IC50 in series [1] was < 1 µM.
Taken in the same sequence, the figures for `Cc1cnc([C@]2(OCC3CC3)CC[C@](C(=O)O)(c3ccc(F)cc3)CC2)n1CC1CC1` [Example 357, Cis-4-Cyclopropylmethoxy-4-(1-cyclopropylmethyl-5-methyl-1H-imidazol-2-yl)-1-(4-fluorophenyl)cyclohexanecarboxylic Acid] were 187 °C and < 1 µM.
Taken in the same sequence, the figures for `Cc1nc([C@]2(OCC3CC3)CC[C@](C(=O)O)(c3ccccc3)CC2)n(CC2CC2)c1C#N` [Example 419, Cis-4-(5-Cyano-1-cyclopropylmethyl-4-methyl-1H-imidazol-2-yl)-4-cyclopropylmethoxy-1-phenylcyclohexanecarboxylic Acid] were 228 °C and < 1 µM.
The like results for `O=C(O)[C@]1(c2ccccc2)CC[C@@](Oc2ccc(C(F)(F)F)cc2)(c2nc(-c3ccccc3)n(CC3CC3)n2)CC1` [Example 474, Cis-4-(1-Cyclopropylmethyl-5-phenyl-1H-[1,2,4]triazol-3-yl)-1-phenyl-4-(4-trifluoromethylphenoxy)cyclohexanecarboxylic Acid] were, in that order, 85 °C and < 1 µM.
In turn, `Cc1nc([C@]2(OCC3CC3)CC[C@](C(=O)O)(c3ccccc3)CC2)n(CC2CC2)c1-c1ccc(F)cc1` [Example 427, Cis-4-Cyclopropylmethoxy-4-[1-cyclopropylmethyl-5-(4-fluorophenyl)-4-methyl-1H-imidazol-2-yl]-1-phenylcyclohexanecarboxylic Acid] returned a melting point of 199 °C. Further, in series [1], the IC50 was < 1 µM.
The like results for `Cc1c(Br)nc([C@]2(Oc3ccccc3)CC[C@](C(=O)O)(c3ccc(F)cc3)CC2)n1CC1CC1` [Example 403, Cis-4-(4-Bromo-1-cyclopropylmethyl-5-methyl-1H-imidazol-2-yl)-4-phenoxy-1-(4-fluorophenyl)cyclohexanecarboxylic Acid] were, in that order, 158 °C and < 1 µM.
Taken in the same sequence, the figures for `CS(=O)(=O)n1c2ccccc2cc1[C@]1(OCC2CC2)CC[C@](C(=O)O)(c2ccccc2)CC1` [Example 440, Cis-4-Cyclopropylmethoxy-4-(1-methanesulfonyl-1H-indol-2-yl)-1-phenylcyclohexanecarboxylic Acid] were 152 °C and < 1 µM.
The like results for `Cc1c(S(C)(=O)=O)nc([C@]2(OCC3CC3)CC[C@](C(=O)O)(c3ccccc3)CC2)n1CC1CC1` [Example 422, Cis-4-Cyclopropylmethoxy-4-(1-cyclopropylmethyl-5-methyl-4-methanesulfonyl-1H-imidazol-2-yl)-1-phenylcyclohexanecarboxylic Acid] were, in that order, 242 °C and < 1 µM.
As for `Cc1nc([C@]2(OCC3CC3)CC[C@](C(=O)O)(c3ccc(F)cc3)CC2)n(CC2CC2)c1Cl` [Example 363, Cis-4-(5-Chloro-1-cyclopropylmethyl-4-methyl-1H-imidazol-2-yl)-4-cyclopropylmethoxy-1-(4-fluorophenyl)cyclohexanecarboxylic Acid], the melting point came to 184 °C. Also, the IC50 in series [1] was < 1 µM.
The like results for `O=C(O)[C@]1(c2ccc(F)cc2)CC[C@](Oc2ccccn2)(c2ccc(F)cn2)CC1` [Example 339, Trans-1-(4-Fluorophenyl)-4-(5-fluoropyridin-2-yl)-4-(pyridin-2-yloxy)cyclohexanecarboxylic Acid] were, in that order, > 300 °C and < 1 µM.
`Cc1nc([C@]2(OCC3CC3)CC[C@](C(=O)O)(c3ccc(F)cc3)CC2)n(CC2CC2)c1Br` [Example 354, Cis-4-(5-Bromo-1-cyclopropylmethyl-4-methyl-1H-imidazol-2-yl)-4-cyclopropylmethoxy-1-(4-fluorophenyl)cyclohexanecarboxylic Acid] came in with a melting point of 190 °C. Besides, in series [1], the IC50 is < 1 µM.
The like results for `Cc1c(C#N)nc([C@]2(OCC3CC3)CC[C@](C(=O)O)(c3ccc(F)cc3)CC2)n1CC1CC1` [Example 418, Cis-4-(4-Cyano-1-cyclopropylmethyl-5-methyl-1H-imidazol-2-yl)-4-cyclopropylmethoxy-1-(4-fluorophenyl)cyclohexanecarboxylic Acid] were, in that order, 245 °C and < 1 µM.
